Experimental data published in ChEMBL document CHEMBL5376007, “Discovery of Novel PD-L1 Inhibitors That Induce the Dimerization, Internalization, and Degradation of PD-L1 Based on the Fragment Coupling Strategy” (J Med Chem, 2023).
The source made the active and inactive calls. The rule behind the calls is not given here.

Tests used:
[1] = target: Programmed cell death protein 1/Programmed cell death 1 ligand 1 (Homo sapiens, UniProt Q9NZQ7); assay: Inhibition of interaction of Fc(IgG1)-Avi)-(Biotin)-fused human PDL1 (19 to 239 residues)/Eu-labeled human PD-1 (25 to 167 residues) expressed in HEK293 cells pretreated with PDL1 for 15 mins followed by PD-1 addition and measured after 90 mins by TR-FRET assay; format: cell-based
[2] = target: T1, Programmed cell death 1 ligand 1 (Homo sapiens, UniProt Q9NZQ7); assay: Inhibition of human recombinant PDL1 expressed in HEK293 cells assessed as restoration of Jurkat T cell activity by measuring increase in IFNgamma secretion at 1 uM incubated for 24 hrs by ELISA; format: cell-based; parameters: Activity: scale not given: the % may be the effect or the level left
CT26 [3] = assay: Antitumor activity against mouse CT26 cells xenografted in BALB/c mouse assessed as inhibition of tumor growth at 20 mg/kg, ip qd for 2 weeks; format: functional, organism-based
CT26 [4] = assay: Antitumor immunity against mouse CT26 cells xenografted in BALB/c mouse assessed as increase in infiltration of CD8+ cells in tumor at 20 mg/kg, ip qd for 2 weeks by immunohistochemical staining based analysis; format: functional, organism-based
CT26 [5] = assay: In vivo inhibition of PDL1 in BALB/c mouse xenografted with mouse CT26 cells assessed as induction of PDL1 degradation by measuring decrease in PDL1 protein expression in tumor at 20 mg/kg, ip qd for 2 weeks by immunohistochemical staining based analysis; format: functional, organism-based
[6] = Toxicity against BALB/c mouse xenografted with mouse CT26 cells assessed as mortality at 10 to 20 mg/kg, ip qd for 2 weeks; format: organism-based; conditions: in vivo, 336 h, dose 10-20 mg/kg
[7] = Toxicity against BALB/c mouse xenografted with mouse CT26 cells assessed as body weight loss at 10 to 20 mg/kg, ip qd for 2 weeks; format: organism-based; conditions: in vivo, 336 h, dose 10-20 mg/kg
[8] = target: T1, Programmed cell death 1 ligand 1; assay: Inhibition of PDL1 in human MDA-MB-231 cells assessed as induction of PDL1 degradation at 1 to 5 uM incubated for 24 hrs by western blot analysis; format: cell-based; conditions: dose 1-5 µM
MDA-MB-231 = assay: Antitumor activity against human MDA-MB-231 cells cocultured with CD3/CD28/CD2 T cell activator stimulated human PBMC cells assessed as increase in tumor cell viability incubated for 12 hrs by LDH assay; conditions: MDA-MB-231, 12 h
[9] = target: T1, Programmed cell death 1 ligand 1; assay: Inhibition of PDL1 (unknown origin) assessed as induction of PDL1 dimerization at protein to compound concentration ratio of 1:2 incubated for overnight by SEC analysis
[10] = target: T1, Programmed cell death 1 ligand 1; assay: Inhibition of PDL1 in human RKO cells assessed as […] PDL1 internalization into cytosol incubated for 12 hrs by immunofluorescence assay; format: subcellular; conditions: dose 0.5-2 µM
[11] = target: T1, Programmed cell death 1 ligand 1; assay: Inhibition of human recombinant PDL1 expressed in HEK293 cells assessed as restoration of Jurkat T cell activity by measuring increase in IL-2 secretion incubated for 24 hrs by ELISA; format: cell-based; conditions: dose 0.3125-2.5 µM
[12] = Tmax in Sprague-Dawley rat at 25 mg/kg, po by LC-MS/MS analysis; format: ADME, organism-based; conditions: in vivo
[13] = Oral bioavailability in Sprague-Dawley rat at 25 mg/kg by LC-MS/MS analysis; format: ADME, organism-based; conditions: in vivo
[14] = Half life in Sprague-Dawley rat at 25 mg/kg, po by LC-MS/MS analysis; format: ADME, organism-based; conditions: in vivo
NCM460 = assay: Cytotoxicity against human NCM460 cells assessed as cell viability at 0.625 to 10 uM incubated for 24 hrs by CCK8 assay; format: toxicity, cell-based; conditions: ncm460, 24 h, dose 0.625-10 µM
CT26 [15] = assay: Antitumor activity against mouse CT26 cells xenografted in BALB/c mouse assessed as inhibition of tumor growth administered ip qd for 2 weeks; format: functional, organism-based; conditions: dose 10-20 mg/kg
[16] = Tmax in Sprague-Dawley rat at 5 mg/kg, iv by LC-MS/MS analysis; format: ADME, organism-based; conditions: in vivo
[17] = target: T1, Programmed cell death 1 ligand 1; assay: Inhibition of human recombinant PDL1 expressed in HEK293 cells assessed as restoration of Jurkat T cell activity by measuring increase in IL-2 secretion at 2.5 uM incubated for 24 hrs in presence of PD-L1v242 by ELISA; format: cell-based
CT26 [18] = assay: Antitumor activity against mouse CT26 cells xenografted in BALB/c mouse assessed as decrease in tumor weight at 10 mg/kg, ip qd for 2 weeks; format: functional; conditions: CT26, 336 h
[19] = target: T1, Programmed cell death 1 ligand 1; assay: Binding affinity to RED-NHS dye labeled human PDL1 incubated for 10 mins away from light by microscale thermophoresis analysis
[20] = AUC(0 to t) in Sprague-Dawley rat at 5 mg/kg, iv by LC-MS/MS analysis; format: ADME, organism-based; parameters: dose 5 mg/kg, route iv; conditions: in vivo
CT26 [21] = assay: Antitumor activity against mouse CT26 cells xenografted in BALB/c mouse assessed as decrease in tumor weight at 20 mg/kg, ip qd for 2 weeks; format: functional; conditions: CT26, 336 h
CT26 [22] = assay: In vivo inhibition of PDL1 in BALB/c mouse xenografted with mouse CT26 cells assessed as induction of PDL1 degradation by measuring decrease in PDL1 protein expression in tumor at 10 to 20 mg/kg, ip qd for 2 weeks by immunohistochemical staining based analysis; format: functional, organism-based; conditions: dose 10-20 mg/kg
[23] = Half life in Sprague-Dawley rat at 5 mg/kg, iv by LC-MS/MS analysis; format: ADME, organism-based; conditions: in vivo
CT26 [24] = assay: Antitumor immunity against mouse CT26 cells xenografted in BALB/c mouse assessed as increase in infiltration of CD8+ cells in tumor administered ip qd for 2 weeks by immunohistochemical staining based analysis; format: functional, organism-based; conditions: dose 10-20 mg/kg
CT26 [25] = assay: Antitumor activity against mouse CT26 cells xenografted in BALB/c mouse assessed as tumor shrinkage and reduction of tumor growth at 20 mg/kg, ip qd for 2 weeks by Hematoxylin-eosin staining based analysis; format: functional, organism-based
[26] = Cmax in Sprague-Dawley rat at 5 mg/kg, iv by LC-MS/MS analysis; format: ADME, organism-based; parameters: dose 5 mg/kg, route iv; conditions: in vivo
[27] = Cmax in Sprague-Dawley rat at 25 mg/kg, po by LC-MS/MS analysis; format: ADME, organism-based; parameters: dose 25 mg/kg, route po; conditions: in vivo
L02 = assay: Cytotoxicity against human L02 cells assessed as cell viability at 0.625 to 10 uM incubated for 24 hrs by CCK8 assay; format: toxicity, cell-based; conditions: l02, 24 h, dose 0.625-10 µM
[28] = AUC(0 to t) in Sprague-Dawley rat at 25 mg/kg, po by LC-MS/MS analysis; format: ADME, organism-based; parameters: dose 25 mg/kg, route po; conditions: in vivo
[29] = target: Programmed cell death 1 ligand 1 (Mus musculus, UniProt Q9EP73); assay: Binding affinity to RED-NHS dye labeled mouse PDL1 incubated for 10 mins away from light by microscale thermophoresis analysis
[30] = target: T1, Programmed cell death 1 ligand 1; assay: Inhibition of PDL1 in human RKO cells assessed as […] PDL1 internalization into cytosol at 2 uM by immunofluorescence assay; format: subcellular; conditions: time 2-6 hrs, TDE = time-dependent effect

Programmed cell death protein 1/Programmed cell death 1 ligand 1, sequence (Q15116 whole entry, the tested form may be a part): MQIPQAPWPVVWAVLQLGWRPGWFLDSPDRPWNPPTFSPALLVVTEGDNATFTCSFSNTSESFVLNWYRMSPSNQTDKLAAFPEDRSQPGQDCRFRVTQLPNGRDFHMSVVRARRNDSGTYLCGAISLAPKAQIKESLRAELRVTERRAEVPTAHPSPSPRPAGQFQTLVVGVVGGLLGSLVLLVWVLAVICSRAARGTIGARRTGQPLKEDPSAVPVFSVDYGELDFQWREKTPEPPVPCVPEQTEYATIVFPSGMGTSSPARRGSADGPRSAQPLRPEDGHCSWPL
Programmed cell death protein 1/Programmed cell death 1 ligand 1, sequence (Q9NZQ7 whole entry, the tested form may be a part): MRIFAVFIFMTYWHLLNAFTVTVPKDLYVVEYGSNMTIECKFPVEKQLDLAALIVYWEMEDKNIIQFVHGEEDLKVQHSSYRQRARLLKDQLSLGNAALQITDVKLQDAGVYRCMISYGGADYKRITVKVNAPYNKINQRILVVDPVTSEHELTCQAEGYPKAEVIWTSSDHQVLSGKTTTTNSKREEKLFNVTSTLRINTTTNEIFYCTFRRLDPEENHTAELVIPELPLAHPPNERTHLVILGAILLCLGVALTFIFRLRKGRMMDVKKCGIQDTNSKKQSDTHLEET
T1 sequence (Q9NZQ7 whole entry): as the sequence (Q9NZQ7 whole entry, the tested form may be a part) above
Programmed cell death 1 ligand 1 (Mus musculus, UniProt Q9EP73), sequence (Q9EP73 whole entry): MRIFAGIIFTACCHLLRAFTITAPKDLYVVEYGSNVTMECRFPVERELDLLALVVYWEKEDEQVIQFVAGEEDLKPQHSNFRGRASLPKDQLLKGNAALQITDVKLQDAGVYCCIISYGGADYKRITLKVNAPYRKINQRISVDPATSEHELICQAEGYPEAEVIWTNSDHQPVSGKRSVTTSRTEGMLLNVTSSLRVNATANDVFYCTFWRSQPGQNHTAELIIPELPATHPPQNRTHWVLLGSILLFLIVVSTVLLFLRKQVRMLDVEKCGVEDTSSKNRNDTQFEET

## Cc1c(-c2nnc(Nc3ccc(CNCCO)cc3)o2)cccc1-c1cccc(-c2nnc(Nc3cccc(CNCCO)c3)o2)c1C
[1]
  IC50: 714 nM

## COc1nc(O[C@H]2CCc3c(-c4cccc(C(=O)Nc5ccc(CNCCNC(C)=O)c(F)n5)c4Cl)cccc32)c(Cl)cc1CNCCNC(C)=O
[1]
  IC50: 15.6 nM

## COc1nc(-c2cccc(-c3cccc(-c4nnc(Nc5cccc(CNCCO)c5)o4)c3C)c2C)ccc1CNCCO
[2]
  inhibition: Active
[1]
  IC50: 13.9 nM

## Cc1c(C(=O)Nc2ccc(CNCCO)cn2)cccc1-c1cccc(-c2nnc(Nc3cccc(CNCCO)c3)o2)c1C
[1]
  IC50: 14.5 nM

## COc1nc(O[C@H]2CCc3c(-c4cccc(C(=O)Nc5ccc(CN6CC(O)C6)cn5)c4Cl)cccc32)c(Cl)cc1CN1CC(O)C1
[1]
  IC50: 6.3 nM

## COc1nc(-c2cccc(-c3cccc(-c4nnc(Nc5cccc(CNCCO)c5)o4)c3C)c2C)ccc1CNCCNC(C)=O
[2]
  Activity: 66%
[1]
  IC50: 23.5 nM

## CC(=O)NCCNCc1ccc(Nc2nnc(-c3cccc(-c4cccc(-c5nnc(Nc6cccc(CNCCNC(C)=O)c6)o5)c4C)c3C)o2)cc1
[1]
  IC50: 893 nM

## COc1nc(O[C@H]2CCc3c(-c4cccc(C(=O)Nc5ccc(CNCCNC(C)=O)c(C(F)(F)F)n5)c4Cl)cccc32)c(Cl)cc1CNCCNC(C)=O
[1]
  IC50: 18.8 nM

## COc1nc(O[C@H]2CCc3c(-c4cccc(C(=O)Nc5ccc(CNCCO)c(C(F)(F)F)n5)c4Cl)cccc32)c(Cl)cc1CNCCO
[1]
  IC50: 16.7 nM

## Cc1c(Nc2nccc3cc(CN4CC[C@@H](O)C4)cnc23)cccc1-c1cccc(-c2nc3cc(CN4CC[C@@H](C(=O)O)C4)cc(C#N)c3o2)c1C
CT26 [3]
  Activity: Active
CT26 [4]
  Activity: Active
CT26 [5]
  inhibition: inactive

## COc1nc(NC(=O)c2cccc(-c3cccc4c3CC[C@@H]4Oc3nc(OC)c(CNCCO)cc3Cl)c2Cl)ccc1CNCCO
[1]
  IC50: 18.2 nM

## Cc1c(-c2nnc(Nc3cccc(CNCCO)c3)o2)cccc1-c1cccc(C(=O)Nc2ccc(CNCCO)cn2)c1Cl
[1]
  IC50: 8.2 nM

## Cc1c(-c2cccc(-c3ccc(CNCCO)cc3)c2)cccc1-c1nnc(Nc2cccc(CNCCO)c2)o1
[1]
  IC50: 42 nM

## COc1nc(O[C@H]2CCc3c(-c4cccc(C(=O)Nc5ccc(CNC[C@@H]6CCC(=O)N6)cn5)c4Cl)cccc32)c(Cl)cc1CNC[C@@H]1CCC(=O)N1
[6]
  Activity: Non-Toxic
[7]
  Activity: Non-Toxic
[8]
  inhibition: Active
MDA-MB-231
  EC50: ~800 nM
[9]
  inhibition: Active
[10]
  inhibition: Dose-Dependent Effect
[11]
  inhibition: Dose-Dependent Effect
[12]
  Tmax: 0.3 h
[13]
  bioavailability: 1.6%
[14]
  half-life: 5.8 h
NCM460
  Activity: Non-Toxic
CT26 [15]
  Activity: Dose-Dependent Effect
[16]
  Tmax: 1.8 min
[17]
  inhibition: Active
CT26 [18]
  inhibition in vivo at 10 mg/kg: 37%
[19]
  Kd: 24 nM
[2]
  Activity: 80%
[20]
  AUC(0-t): 890 ng·h/mL
CT26 [21]
  inhibition in vivo at 20 mg/kg: 51%
CT26 [22]
  inhibition: Active
[23]
  half-life: 5.3 h
CT26 [24]
  Activity: Dose-Dependent Effect
CT26 [25]
  Activity: Active
[26]
  Cmax: 2370 ng/mL
[27]
  Cmax: 22.6 ng/mL
L02
  Activity: Non-Toxic
[28]
  AUC(0-t): 73.1 ng·h/mL
[29]
  Kd: 790 nM
[1]
  IC50: 1.8 nM
[30]
  inhibition: Tde

## COc1nc(O[C@H]2CCc3c(-c4cccc(C(=O)Nc5ccc(CNCCN(C)C)cn5)c4Cl)cccc32)c(Cl)cc1CNCCN(C)C
[1]
  IC50: 4.2 nM
